Results taken from US5506217A, “Phosphonates as anti-cancer agents” (The University of British Columbia, priority 1994, dated 1996).

Tests used:
[1] = tested on: P388 tumor cells; assay: colonogenic cell survival assay; format: cell-based; conditions: Mus musculus, 120 h, P388, read-out: Colonies formed after 5 days (% of control)
Protocol: (§1) Inhibition of colony formation in soft agar medium (colonogenic cell survival assay) is a more rigorous and direct measurement of cell kill or growth inhibition, and reflects the anti-cancer activity of the test compound. Briefly, tumor cells were cultured in petri dishes in methylcellulose, with or without a phosphonate test compound, and the number of colonies formed during a 5-day incubation period were counted.
The efficacy of 4-hexadecylthio-3-methoxybutane phosphonocholine on the growth of a mouse […] tumor was evaluated. The P388 cell line was cultured in a soft agar in the presence and absence of various concentrations of thioalkylphosphonate for 5 days, the number of tumor colonies formed during this period of time was registered.

[2] = tested on: L1210 tumor cells; assay: colonogenic cell survival assay; format: cell-based; conditions: Mus musculus, 120 h, L1210, read-out: Colonies formed after 5 days (% of control)
Protocol: as §1
The effectiveness of S-thioalkylphosphonate on the growth of a lymphoma cell line was also investigated. L1210 is a mouse B-Cell tumor (lymphoma), was tested in soft agar for susceptibility to the cytotoxic action of thioalkylphosphonate.

[3] = tested on: WEHI-3B tumor cells; assay: colonogenic cell survival assay; format: cell-based; conditions: Mus musculus, WEHI3B, 120 h, WEHI-3B, read-out: Colonies formed after 5 days (% of control)
Protocol: as §1
Table 17 tabulates data obtained with two differrent phosphonate analogs using a colonogenic assay. Colonogenic assay is one of the most trusted tests for determination of effectiveness of an anti-cancer agent. The test is based on the formation of tumor colonies in vitro in a methyl cellulose or soft agar medium. The following results were obtained with the formation of colonies in methyl cellulose medium after five days in the presence or absence of four phosphonate analogs, two with a thioalkyl chain and two with an alkyloxy chain.

[4] = tested on: WEHI-3B tumor; assay: WEHI-3B tumor growth in BALB/C mice; format: in vivo; conditions: for Tumor volume in cm^3: 500 μg (approx. 25 mg/Kg) daily IM
Protocol: After 3 days one group (n=5) of mice received 500 μg (approximately 25 mg/Kg body weight) of the phosphonate compound of the following formula daily by intramuscular (IM) injection. The size of the resulting tumor was measured using a caliper: [drawing 17]

[5] = tested on: WEHI-3B tumor cells; assay: 3H-thymidine incorporation assay; format: cell-based; conditions: Mus musculus, WEHI3B, read-out: Thymidine uptake (% of control)
Protocol: (§2) Experiments were performed using a number of different rumor cell lines. Tumor cells were cultured in RPMI-1640 medium supplemented with 10% fetal bovine serum, penicillin (50 units/mL), streptomycin (50 μg/mL) and mercaptoethanol (5 μg/mL) in an atmosphere of 5% CO2. The cells were passaged weekly by serial 1/10 to 1/10,000 dilutions. The cell viability and growth were constantly monitored by staining with trypan blue exclusion dye or the incorporation of tritiated thymidine.
(§3) Inhibition of ^3 H-thymidine incorporation into the DNA of cells by a test compound is an indirect measurement of cell kill or growth inhibition, and reflects the anti-cancer activity of the compound.
Tumor cells (2×104 ^4 cells/well) were placed in 200 μL of medium in 96-well plastic microtiter plates; a further 5 μL of medium either with or without phosphonate was added. […] The cells were then harvested using a Brandel cell harvester (model M-12) and collected on Whatman glass microfilters. The radioactivity associated with the filters was quantified in a liquid scintillation counter, and the amount of ^3 H-thymidine incorporated into tumor cells treated with the phosphonate compound was calculated as a percentage of the amount of ^3 H-thymidine incorporated into untreated tumor cells.
The biological activities of 4-hexadecylthio-3(S ) -3-methoxybutane-l-phosponocholine and its enantiomer 4-hexadecylthio-3(R)-3-methoxybutane-1-phosphonocholine were studied on several cancer cell lines. […] The cell viability, was determined as percent[^3 H]thymidine uptake into the cell DNA. The following results are mean of five samples ± S.D.

[6] = tested on: C-41 tumor cells; assay: 3H-thymidine incorporation assay; format: cell-based; conditions: Homo sapiens, read-out: Thymidine uptake (% of control)
Protocol: as §2, §3
Tumor cells (2×104 ^4 cells/well) were placed in 200 μL of medium in 96-well plastic microtiter plates; a further 5 μL of medium either with or without phosphonate was added. After incubation for 24, 48 or 72 hours at 37° C. in a humidified atmosphere containing 5% CO2, the wells were pulsed with 0.1 μCi of ^3 H-thymidine for an additional 24 hours. The cells were then harvested using a Brandel cell harvester (model M-12) and collected on Whatman glass microfilters. The radioactivity associated with the filters was quantified in a liquid scintillation counter, and the amount of ^3 H-thymidine incorporated into tumor cells treated with the phosphonate compound was calculated as a percentage of the amount of ^3 H-thymidine incorporated into untreated tumor cells.
It has been discovered that a phosphonate compound of the following structure: [drawing 21] inhibits thymidine incorporation into DNA of a human cervical carcinoma (C-41 ) cell line. This effect is indicative of the anti-cancer activity of the above compound.

[7] = tested on: Lewis lung carcinoma cells; assay: LLC tumor growth in BALB/C mice; format: in vivo; conditions: for Tumor volume (mm^3): 50 mg/day orally once a day from day 3
Protocol: BALB/C mice were injected with […] lung carcinoma cells under the skin at the back. Three days after injection of the rumor cells, treatment with the phosphonate shown above (compound VI) (50 mg/day orally once a day) was initiated in one group of mice, while a second group of mice received only the carrier, mucilage of tragacanth.

`CCCCCCCCCCCCCCCCOCC(CP(=O)([O-])OCC[N+](C)(C)C)OC` (centres unmarked) [compound VII] was tested, and the activity at 1.25 µM ([1]; 1.25 μM) was 88 ± 6%, the activity at 2.5 µM ([1]; 2.5 μM) was 79 ± 8% and the activity at 5 µM ([1]; 5 μM) was 61 ± 7%. It also gave an activity at 10 µM ([1]; 10 μM) of 56 ± 7%, an activity at 20 µM ([1]; 20 μM) of 29 ± 4% and an activity at 40 µM ([1]; 40 μM) of 16 ± 2%. The activity at 1.25 µM ([2]; 1.25 μM) was 91 ± 7%, the activity at 2.5 µM ([2]; 2.5 μM) was 80 ± 11% and the activity at 5 µM ([2]; 5 μM) was 55 ± 4%. The activity at 10 µM ([2]; 10 μM) was 42 ± 5%, the activity at 20 µM ([2]; 20 μM) was 22 ± 3% and the activity at 40 µM ([2]; 40 μM) was 14 ± 5%. The activity at 1.25 µM ([3]; 1.25 μM) was 88%, the activity at 2.5 µM ([3]; 2.5 μM) was 60% and the activity at 5 µM ([3]; 5 μM) was 48%. The activity at 10 µM ([3]; 10 μM) was 34%, the activity at 20 µM ([3]; 20 μM) was 13% and the activity at 40 µM ([3]; 40 μM) was 2%. The “effect on tumor growth (in words)” value ([4]; 25 mg/Kg body weight per day, intramuscularly) was “delayed the onset of tumor growth and reduced the tumor growth significantly”, the “Tumor volume in cm^3” value ([4]; day 3 after implantation) was 0.000 ± 0.000 cm^3 and the “Tumor volume in cm^3” value ([4]; day 15 after implantation) was 0.000 ± 0.000 cm^3. The “Tumor volume in cm^3” value ([4]; day 17 after implantation) was 0.000 ± 0.000 cm^3, the “Tumor volume in cm^3” value ([4]; day 20 after implantation) was 0.036 ± 0.010 cm^3 and the “Tumor volume in cm^3” value ([4]; day 22 after implantation) was 0.117 ± 0.017 cm^3. For the same compound, the “Tumor volume in cm^3” value ([4]; day 24 after implantation) was 0.172 ± 0.025 cm^3.
For `CCCCCCCCCCCCCCCCCCOCC(CCP(=O)([O-])OCC[N+](C)(C)C)OC` (centres unmarked) [compound VI], the activity at 1.25 µM ([5]; 24 h, Day 1) was 95%, the activity at 2.5 µM ([5]; 24 h, Day 1) was 72% and the activity at 5 µM ([5]; 24 h, Day 1) was 34%. It also gave an activity at 10 µM ([5]; 24 h, Day 1) of 18%, an activity at 20 µM ([5]; 24 h, Day 1) of 8% and an activity at 40 µM ([5]; 24 h, Day 1) of 3%. It also gave an activity at 1.25 µM ([5]; 48 h, Day 2) of 84%, an activity at 2.5 µM ([5]; 48 h, Day 2) of 67% and an activity at 5 µM ([5]; 48 h, Day 2) of 22%. For the same compound, the activity at 10 µM ([5]; 48 h, Day 2) was 13%, the activity at 20 µM ([5]; 48 h, Day 2) was 2% and the activity at 40 µM ([5]; 48 h, Day 2) was 2%. For the same compound, the activity at 1.25 µM ([5]; 72 h, Day 3) was 77%, the activity at 2.5 µM ([5]; 72 h, Day 3) was 54% and the activity at 5 µM ([5]; 72 h, Day 3) was 12%. For the same compound, the activity at 10 µM ([5]; 72 h, Day 3) was 10%, the activity at 20 µM ([5]; 72 h, Day 3) was 1% and the activity at 40 µM ([5]; 72 h, Day 3) was 2%. It also gave an activity at 2.5 µM ([6]; C4-1, 2.5 μM) of 88%, an activity at 5 µM ([6]; C4-1, 5 μM) of 63% and an activity at 10 µM ([6]; C4-1, 10 μM) of 42%. The activity at 20 µM ([6]; C4-1, 20 μM) was 41%, the activity at 40 µM ([6]; C4-1, 40 μM) was 16% and the “Tumor volume (mm^3)” value ([7]; day 0 after tumor injection) was 0 mm^3. For the same compound, the “Tumor volume (mm^3)” value ([7]; day 7 after tumor injection) was 0 mm^3, the “Tumor volume (mm^3)” value ([7]; day 10 after tumor injection) was 0 mm^3 and the “Tumor volume (mm^3)” value ([7]; day 17 after tumor injection) was 100 mm^3. For the same compound, the “Tumor volume (mm^3)” value ([7]; day 18 after tumor injection) was 175 mm^3, the “Tumor volume (mm^3)” value ([7]; day 20 after tumor injection) was 252 mm^3 and the “Tumor volume (mm^3)” value ([7]; day 22 after tumor injection) was 500 mm^3. The “retardation of tumor growth” value ([7]; versus untreated animals, 50 mg/day orally once a day) was “approximately 6 days”.
